Reference: PubChem BioAssay (NCI)
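Results reflect a 48-hour exposure of cells in 96-well plates to compound at five concentrations. Here, GI50 denotes the concentration required for 50% inhibition of growth. TGI: concentration producing complete growth inhibition.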

How the values were obtained:
Assay in all cases: NCI tumour cell line growth inhibition, 48 h
CAKI-1 renal = tested on: CAKI-1 renal
HCC-2998 colon = tested on: HCC-2998 colon
HL-60(TB) leukemia = tested on: HL-60(TB) leukemia
K-562 leukemia = tested on: K-562 leukemia
NCI-H522 lung = tested on: NCI-H522 lung
OVCAR-4 ovarian = tested on: OVCAR-4 ovarian
OVCAR-5 ovarian = tested on: OVCAR-5 ovarian
SK-MEL-28 melanoma = tested on: SK-MEL-28 melanoma
U251 CNS = tested on: U251 CNS
SN12C renal = tested on: SN12C renal

Structure (SMILES) | GI50 (CAKI-1 renal) [µM] | TGI (CAKI-1 renal) [µM] | GI50 (HCC-2998 colon) [µM] | TGI (HCC-2998 colon) [µM] | GI50 (HL-60(TB) leukemia) [µM] | TGI (HL-60(TB) leukemia) [µM] | GI50 (K-562 leukemia) [µM] | TGI (K-562 leukemia) [µM] | GI50 (NCI-H522 lung) [µM] | TGI (NCI-H522 lung) [µM] | GI50 (OVCAR-4 ovarian) [µM] | TGI (OVCAR-4 ovarian) [µM] | GI50 (OVCAR-5 ovarian) [µM] | TGI (OVCAR-5 ovarian) [µM] | GI50 (SK-MEL-28 melanoma) [µM] | TGI (SK-MEL-28 melanoma) [µM] | GI50 (U251 CNS) [µM] | TGI (U251 CNS) [µM] | GI50 (SN12C renal) [µM] | TGI (SN12C renal) [µM]
O=C1c2cc3c(cc2-c2c1c1cc(Cl)c(Cl)cc1c(=O)n2CCCn1ccnc1)OCO3 | < 0.01 | > 100 | 0.0538 | > 100 | < 0.01 | 15.9 | 0.0111 | 20.8 | < 0.01 | 0.835 | 0.0495 | > 100 | 0.0239 | > 100 | 0.0665 | > 100 | < 0.01 | 11.6 |  | 
COc1ccc(N(C)c2nc(C)nc3ccccc23)cc1 | < 0.01 | 46.4 | < 0.01 | 4.31 | < 0.01 | < 0.01 | < 0.01 | > 100 | < 0.01 | < 0.01 | < 0.01 | > 100 | < 0.01 | > 100 | 19.3 | > 100 | < 0.01 | > 100 | < 0.01 | > 100
NNC(=O)/C(=C/c1cccc([N+](=O)[O-])c1)NC(=O)c1ccccc1 |  | > 100 |  | > 100 |  | > 100 |  | > 100 |  | > 100 |  | > 100 |  | > 100 |  | > 100 |  | > 100 |  | > 100
O/N=C1/C(=C/c2ccc(F)cc2)CCCC1C(NO)c1ccc(F)cc1 (stereo not drawn) |  | > 100 |  | > 100 |  | 49.1 |  | > 100 |  | 42.5 |  | > 100 |  |  |  | > 100 |  | > 100 |  | 43.6
CCOP(=O)(OCC)C1C(=O)O[C@H]2CCCC[C@@H]12 (stereo partly drawn) |  | > 100 |  | > 100 |  |  |  | > 100 |  |  |  | > 100 |  | > 100 |  | > 100 |  | > 100 |  | > 100
CCCCN(CCCC)C(=O)C(=O)CC(=O)c1ccc(Br)cc1 |  | > 100 |  | > 100 |  | > 100 |  | > 100 |  | > 100 |  | > 100 |  | > 100 |  |  |  | > 100 |  | > 100
CC1=C(C(=O)Nc2ccccc2)C(c2ccc3c(c2)OCO3)C(C(=O)Nc2ccccc2)=C(C)N1 |  | > 100 |  | > 100 |  | 42.4 |  | 66 |  | 73.3 |  | 81.4 |  |  |  | > 100 |  |  |  | > 100
O=S(=O)(c1ccc(NC(=S)N/N=C/c2ccccc2O)cc1)N1CCCCC1 |  | 0.671 |  |  | 0.351 | 7.12 |  |  |  | > 57.5 |  | > 71.4 |  | 18.3 |  | > 52 |  | 16.8 |  | 3.92
COc1cc2cc(Oc3ccc(NC(=O)Nc4cccc(C(F)(F)F)c4)cc3)c(C)nc2cc1OCCN1CCCCC1 | 1.4 | 2.82 |  |  | 1.94 | 3.74 | 0.802 | 3.11 | 1.67 | 3.33 | 1.66 | 3.39 | 1.87 | 3.29 | 1.76 | 3.14 |  |  | 1.66 | 3.15
C1CCC([PH+](C2CCCCC2)C2CCCCC2[PH+](C2CCCCC2)C2CCCCC2)CC1.[Au].[CH-]1CCCCC1C1CCCC[N-]1 (stereo not drawn) |  |  |  |  | 0.272 | 0.826 | 0.229 | > 100 |  |  |  |  | 0.377 | 1.79 | 0.434 | 1.79 |  |  |  | 
CC12OC(C(=O)C13CC3)C1C(=O)c3ccccc3C(=O)C12 (stereo not drawn) | 21.6 | 38.5 | 36.3 | > 100 | 26.8 | 81.6 | 36.8 | > 100 | 53.3 | > 100 |  |  | 47.4 | > 100 | 21.6 | 62.1 |  |  |  | 
COc1cc2c3c(n(C)c(=O)c2cc1OC)-c1cc2c(cc1/C3=C\CCCCN)OCO2 | 4.41 | 17.1 |  |  | 4.68 | > 100 | 6.22 | > 100 | 2.02 | 9.24 | 17.2 | 57.3 | 15.5 | 35.4 | 28.1 | > 100 | 6.04 | 21.6 | 9.39 | 24.4
CCOC(=O)Cc1c(Cc2[nH]c(C(=O)OCc3ccccc3)c(CC(=O)OCC)c2CC(=O)OCC)[nH]c(C(=O)OCc2ccccc2)c1CC(=O)OCC |  | > 100 |  |  |  | > 100 |  | > 100 |  | > 100 |  |  |  |  |  | > 100 |  | > 100 |  | > 100
Cc1ccc(S(=O)(=O)N/N=C/C(Br)=C(/Br)C(=O)O)cc1 |  | 18.1 |  | 15.7 |  | 5.12 |  |  |  |  |  | 19.7 |  | > 55.5 |  | 9.65 |  | 18.8 |  | 25.6
COc1ccc(/C=C2/CCCC/C2=N/O)cc1 |  |  |  | > 100 |  | > 100 |  |  |  | > 100 |  | > 100 |  | > 100 |  | > 100 |  | > 100 |  | > 100
Cc1ccc2c(c1)NC(c1ccc(C(=O)O)cc1)c1cccn1-2 (stereo not drawn) |  | 72.7 |  |  |  |  |  | > 100 |  |  |  | 64 |  | > 100 |  | > 100 |  | > 100 |  | > 100
COC(=O)Nc1nc2ccc(C(=O)c3ccc[nH]3)cc2[nH]1 |  | > 100 |  | > 100 |  | 0.927 |  |  |  |  |  | > 100 |  | > 100 |  | > 100 |  | > 100 |  | > 100
Cc1ccc(S(=O)(=O)N2CCCSCCSCCCSCC2)cc1 |  |  |  | > 100 |  | > 100 |  | > 100 |  | > 100 |  | > 100 |  | > 100 |  | > 100 |  | > 100 |  | > 100
Cn1nc(-c2ccccc2NC(=O)C(F)(F)F)c(=O)n(C)c1=S |  | 89.4 |  | > 100 |  |  |  | 66.8 |  | 49.2 |  | 62.3 |  | > 100 |  | 30.1 |  | > 100 |  | > 100
